The IC50 is the concentration at which inhibition is half-maximal. Read a low IC50 as greater potency.

These results are taken from paper PMC8771711, “Synthesis of Lasalocid-Based Bioconjugates and Evaluation of Their Anticancer Activity” (ACS Omega, 2022).

Assay [1] has as its system ROS production in HaCaT cells. As to the kind of experiment: ROS detection, DCFH-DA and DHR-123 assay, HaCaT. It counts as cell-based, human. The settings on record: IC50 concentration. The protocol:
(§1) ROS generation was assessed by the spectrofluorometric method using the 2′,7′-dichlorodihydrofluorescein diacetate (DCFH-DA) or dihydrorhodamine 123 (DHR-123). The method is based on the ROS-dependent oxidation of the compounds to fluorescent dichlorofluorescein (DCF) or rhodamine-123, respectively.[61] PC3, SW480, SW620, and HaCaT were seeded on to 96-well plates (5 × 10^4 cells per well) and allowed to adhere for 24 h. Then, cells were rinsed with PBS and incubated with DCFH-DA (5 μM) or DHR-123 (1 μM) for 30 min at 37 °C in the dark. […] A sample with H2O2 (1.5 mM) was a positive control, and a sample without any reagent was a negative control. Maximum excitation and emission spectra for DCF were 492 and 527 nm, and those for rhodamine-123 were 500 and 536 nm, respectively. The generation of H2O2 was measured by Microplate Spectrofluorometer BioTek Synergy (BioTek Instruments, USA) and expressed as fluorescence intensity (FI). Values from three experiments performed in triplicate were analyzed.

Another assay relates to SW620 cells. The assay can be described thus: Annexin V-FITC/PI binding assay (flow cytometry) in SW620. It counts as cell-based, human. The settings on record: IC50 concentration, 72 h. As for the experimental part:
(§2) The SW480, SW620, PC3, and HaCaT cells were cultured and harvested under the conditions mentioned in the Section 4.5 and seeded in 12-well plates (1 × 10^5 cells per well). […] The apoptotic effect was performed using the Annexin V-FITC/propidium iodide (PI) apoptosis assay kit (Becton Dickinson, Pharmingen), according to the manufacturer’s instructions, and analyzed by flow cytometry (Becton Dickinson). The cells which were Annexin V-FITC-positive and PI-negative were identified as early apoptotic and both Annexin V-FITC- and PI-positive as late apoptotic or necrotic. The experiment was repeated three times.
Background: A flow cytometer gives signals particle by particle.

A further assay concerns IL-6 in SW620 cells. As to the kind of experiment: Interleukin-6 assay (ELISA) in SW620. Particulars: IC50 concentration, 72 h, ELISA of culture supernatant. It counts as cell-based, human. As for the experimental part:
(§3) The level of interleukin-6 (IL-6) in SW480, SW620, and PC3 cell lines was measured by commercial human IL-6 ELISA kits Diaclon SAS (Besancon Cedex, France). […] The untreated cells were used as the control. The IL-6 level in a cell culture supernatant was measured using an enzyme-linked immunosorbent assay, in accordance with the manufacturer’s instruction. The experiment was repeated three times.
For orientation: An ELISA detects its analyte on a solid surface through an enzyme-linked reagent.

For a further assay, the system named is SW480 cells. As to the kind of experiment: Annexin V-FITC/PI binding assay (flow cytometry) in SW480. It counts as cell-based, human. Particulars: IC50 concentration, 72 h. The protocol: as §2
Assay [2] deals with SW620, human metastatic colon cancer cell line. The assay can be described thus: MTT assay, cytotoxicity in SW620. It counts as cell-based. The protocol:
(§4) The human cell lines SW480 (primary colon cancer), SW620 (lymph node metastatic colon cancer from the same patient as primary cancer cells), PC3 (metastatic prostate cancer), and HaCaT (immortalized keratinocytes) were obtained from the American Type Culture Collection (ATCC, Rockville, USA). The SW480 and SW620 cells were grown in MEM (ThermoSci, USA), PC3 in RPMI 1640, and HaCaT in DMEM High Glucose (Biowest SAS, France) supplemented with 10% foetal bovine serum (FBS), HEPES (20 mM), and antibiotics (100 U mL^–1 of penicillin and 100 μg mL^–1 of streptomycin). The cells were incubated in a humidified incubator at 37 °C/5% CO2, until 80–90% confluence was reached.
(§5) The cell viability was assessed by using of MTT salt [3-(4,5-dimethylthiazol-2-yl)-2,5-diphenyltetrazolium bromide] converted by mitochondrial dehydrogenase, occurring in living cells. The cells were seeded in 96-well plates at a density of 1 × 10^4 cells per well and allowed to adhere for 24 h at 37 °C in a CO2 humidified incubator. Then, the medium was removed and a fresh medium with various concentrations of tested compounds (from 10 to 120 μM) was added. The untreated cells were used as the control.
(§6) After 72 h incubation, the medium was replaced with 200 μL per well of free serum medium containing 0.5 mg mL^–1 MTT and incubated for 4 h at 37 °C in a CO2 humidified incubator. Subsequently, the medium was removed and dimethyl sulfoxide with isopropanol (1:1) was added to dissolve the formazan crystals. The optical density was measured using a UVM 340 reader (ASYS Hitech GmbH, Austria) at a wavelength of 570 nm. The experiments were repeated three times. The cell viability was calculated as the percent of MTT reduced in treated cells versus control cells (untreated cells). The number of viable cells cultured without tested compounds was assumed as 100%. The decreased relative MTT level indicates decreased cell viability. The IC50 values were estimated using CompuSyn version 1.0.

In assay [3] the test system is SW480, human primary colon cancer cell line. As to the kind of experiment: MTT assay, cytotoxicity in SW480. It counts as cell-based. The protocol:
as §4, §5, §6
(In general: Tetrazolium assays rely on reduction of a dye to a coloured formazan, in cell work by metabolically active cells.)

The subject of assay [4] is ROS production in PC3, SW480, SW620 cells. The assay can be described thus: ROS detection, DCFH-DA and DHR-123 assay, cancer cell lines. The class given is cell-based, human. The settings on record: IC50 concentration; DCF and rhodamine fluorescence intensity. The protocol: as §1
In assay [5] the test system is HaCaT, human immortalized keratinocyte cell line. As to the kind of experiment: MTT assay, cytotoxicity in HaCaT. The settings on record: Homo sapiens, HaCaT, 72 h, mean ± SD, nontumor cells. It counts as cell-based. As for the experimental part:
as §4, §5, §6

The test system of a further assay is PC3 cells. As to the kind of experiment: Annexin V-FITC/PI binding assay (flow cytometry) in PC3. The class given is cell-based, human. The settings on record: IC50 concentration, 72 h. As for the experimental part: as §2
The next assay relates to IL-6 in SW480 cells. As to the kind of experiment: Interleukin-6 assay (ELISA) in SW480. The class given is cell-based, human. Particulars: IC50 concentration, 72 h, ELISA of culture supernatant. The protocol:
as §3

Assay [6] concerns PC3, human prostate cancer cell line. As to the kind of experiment: MTT assay, cytotoxicity in PC3. The class given is cell-based. The protocol:
as §4, §5, §6

The next assay has as its system HaCaT cells. As to the kind of experiment: Annexin V-FITC/PI binding assay (flow cytometry) in HaCaT. The class given is cell-based, human. The settings on record: IC50 concentration, 72 h; span stated for compounds 12 and 13 together. As for the experimental part:
as §2

Molecules are shown by their SMILES.

For `CC[C@@H](C(=O)[C@@H](C)[C@@H](O)[C@H](C)CCc1ccc(C)c(O)c1C(=O)OC[C@H]1O[C@@H](n2ccc(N)nc2=O)C(F)(F)[C@@H]1O)[C@H]1O[C@](CC)([C@H]2CC[C@](O)(CC)[C@H](C)O2)C[C@@H]1C` [Compound 12, LAS–Gemcitabine Conjugate], the “ROS level in HaCaT cells (in words)” value in assay [1] (DCF and rhodamine fluorescence intensity) is recorded as “slightly elevated level of ROS”. Besides, the “time of treatment at which the amount of ROS in HaCaT cells was highest” value in assay [1] (measured after 1, 4, 12, 24 h) was 4 h. In addition, in the assay with SW620 cells, the “early apoptosis in SW620 cells” value was determined as 14.53%. Besides, in the assay with SW620 cells, the “late apoptosis in SW620 cells” value worked out at 14.79%. In addition, the “decrease of IL-6 concentration in SW620 cells compared to the control” value in the assay with IL-6 in SW620 cells is reported as roughly 1.3 time. Besides, the “percentage of necrotic SW480 cells” value with SW480 cells worked out at 42.85%. Moreover, the IC50 in assay [2] (Homo sapiens, SW-620, MTT, 72 h, mean ± SD) was 3.6 ± 1.1 µM; in [3] (Homo sapiens, SW480, MTT, 72 h, mean ± SD) it was 12 ± 0.86 µM; in assay [5], 14 ± 0.22 µM; in assay [6] (Homo sapiens, MTT, 72 h, mean ± SD) it was 1.6 ± 1.2 µM. Besides, the “SW620 SI (selectivity index)” value in assay [2] (SI = IC50 HaCaT / IC50 SW620) is recorded as 3.9. The “SW480 SI (selectivity index)” value in assay [3] (SI = IC50 HaCaT / IC50 SW480) worked out at 1.2. Also, the “ROS level in cancer cell lines (in words)” value in [4] is listed as “significantly higher level of ROS”. Besides, the “percentage of late apoptotic PC3 cells” value in the assay on PC3 cells is recorded as 39.92%. Moreover, the “percentage of necrotic PC3 cells” value in the assay on PC3 cells came to 40.31%. Also, the “decrease of IL-6 concentration in SW480 cells compared to the control” value in the assay on IL-6 in SW480 cells was roughly 1.0 time. In [6] (SI = IC50 HaCaT / IC50 PC3), the “PC3 SI (selectivity index)” value stood at 8.8. Moreover, in the assay with HaCaT cells, the “late apoptosis in HaCaT cells” value fell in the range of 57.26 to 72.01%.
